From PMC9940851, “Seleno Containing Compounds as Potent and Selective Antifungal Agents” (ACS Infectious Diseases, 2022)
In brackets after ≈: the same amount, converted by molar mass.

Legend:
[1] = tested on: T1, M. globosa ATCC MYA 4612; experiment: microbe, parasite or virus in culture; details: Malassezia globosa
T1 construct: ATCC MYA 4612
Method: (§1) Inoculum preparations for antifungal assays were performed following the CLSI guidelines for antifungal susceptibility testing of yeasts.[31] Antifungal activity was evaluated on unicellular yeasts Candida albicans ATCC 10231, Candida glabrata ATCC 90030 (DSMZ 11226), Malassezia pachydermatis CDC 16334 (DSMZ 6172), Malassezia globosa ATCC MYA 4612, and Malassezia furfur ATCC 14521. All the fungal strains were stored at −80 °C in cryovials. Then Candida spp. and Malassezia pachydermatis were reactivated in RPMI 1640 broth for 24–48 h at 35 °C. The so obtained fresh cultures were streaked onto Sabouraud dextrose agar and incubated for 24–48 h at 35 °C. Malassezia globosa and furfur were reactivated in modified RPMI 1640 broth[32] for 24–48 h at 35 °C (M. furfur) and 33 °C (M. globosa), and then the cultures were streaked onto Leeming and Notman agar (MLNA) and incubated for 48–72 h at 35 °C for M. furfur and at 33 °C for M. globosa. The fungal inoculum for the testing was prepared by suspending in phosphate buffer (PB) 10 mM pH 7 4–5 colonies of about 1 mm diameter. The fungal suspension was then adjusted to a final optical density of 0.5 McFarland standard (1–5 × 10^6 cells/mL). The compound solutions were tested in a range of concentrations from 0.01 μg/mL to 256 μg/mL, and 50 μL were then added in 96 wells microtiter plates with 50 μL of fungal inoculum and incubated for 24–48 h at 35 °C. Growth and sterility controls were performed. […] Compounds 3a, 3c, 5b, 7a–d, 9c, 11e, 11i, and 14a,b were selected as representatives of the chemical moieties synthesized prior to their screen on yeasts of biomedical relevance such as M. pachydermatis DSMZ 6172, C. albicans ATCC 10231, and C. glabrata ATCC 90030 (DSMZ 11226) strains. The clinical used drugs Ketoconazole, SeS2, and Amphotericin B were included as references (Table 1).

[2] = tested on: T2, ATCC M. furfur 14521; experiment: microbe, parasite or virus in culture; details: Malassezia furfur
T2 construct: ATCC 14521
Method: as §1

[3] = tested on: T3, M. pachydermatis DSMZ 6172; experiment: microbe, parasite or virus in culture; design: broth microdilution MIC, M. pachydermatis and Candida, 35 °C; details: Malassezia pachydermatis, DSMZ6172
T3 construct: DSMZ 6172 (CDC 16334)
Method: as §1

[4] = tested on: C. albicans; experiment: microbe, parasite or virus in culture; design: broth microdilution MIC, M. pachydermatis and Candida, 35 °C; details: Candida albicans
Method: as §1

[5] = tested on: T4, C. glabrata DSMZ 11226; experiment: microbe, parasite or virus in culture; design: broth microdilution MIC, M. pachydermatis and Candida, 35 °C; details: Nakaseomyces glabratus, DSMZ11226
T4 construct: DSMZ 11226 (ATCC 90030)
Method: as §1

[6] = target: T5, MgCA (Malassezia globosa, UniProt A8Q1N3); experiment: stopped-flow CO2 hydrase assay; format: biochemical
T5 construct: gene MGL_1814
T5 sequence (A8Q1N3 1-241): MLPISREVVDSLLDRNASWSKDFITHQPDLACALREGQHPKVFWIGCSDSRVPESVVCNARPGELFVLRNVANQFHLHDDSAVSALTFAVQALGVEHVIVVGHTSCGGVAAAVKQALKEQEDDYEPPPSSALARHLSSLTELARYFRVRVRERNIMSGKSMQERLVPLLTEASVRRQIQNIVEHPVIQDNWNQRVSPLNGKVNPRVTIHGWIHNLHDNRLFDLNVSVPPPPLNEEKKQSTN
Outline: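 Recombinant carbonic anhydrase (5–12 nM) was preincubated with inhibitor for 15 min at room temperature. CO2 hydration (1.7–17 mM CO2) was then followed by stopped-flow using 0.2 mM phenol red at 557 nm in 20 mM Hepes pH 7.4 with 20 mM Na2SO4, over 10–100 s. Initial rates came from at least six traces, minus uncatalysed rates, and at least three determinations were averaged. Ki was obtained by nonlinear least-squares fitting with the Cheng-Prusoff equation.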

[7] = target: T6, MpaCA (Malassezia pachydermatis, UniProt A0A0M8MPA4); experiment: stopped-flow CO2 hydrase assay; format: biochemical
T6 construct: gene Malapachy_3798
T6 sequence (A0A0M8MPA4 1-242): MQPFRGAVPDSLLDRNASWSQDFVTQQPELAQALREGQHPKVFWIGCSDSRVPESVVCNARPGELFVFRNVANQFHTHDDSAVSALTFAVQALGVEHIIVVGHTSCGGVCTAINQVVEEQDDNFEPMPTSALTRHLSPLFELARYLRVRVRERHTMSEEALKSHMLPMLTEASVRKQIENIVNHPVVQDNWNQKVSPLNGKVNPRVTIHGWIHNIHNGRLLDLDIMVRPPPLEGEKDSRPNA

Row | SMILES | MIC [1] [mg/L] | MIC [2] [mg/L] | MIC [3] [mg/L] | MIC [4] [mg/L] | MIC [5] [mg/L] | Ki [6] [µM] | Ki [7] [µM]
1 | CC(=O)Oc1ccccc1C(=O)NC(=[Se])Nc1cc(S(N)(=O)=O)ccc1O [11e] | 6.7 ± 2.1 (≈ 14.7 µM) | 0.75 ± 0.67 (≈ 1.64 µM) | 0.5 (≈ 1.1 µM) | 256 (≈ 561 µM) | 256 (≈ 561 µM) | 4.73 | 33.8
2 | CC(=O)N1CCN(c2ccc(OC[C@@H]3CO[C@@](Cn4ccnc4)(c4ccc(Cl)cc4Cl)O3)cc2)CC1 (racemic) [Ketoconazole] | 0.25 (≈ 0.47 µM) | 0.25 (≈ 0.47 µM) | 0.03 (≈ 0.0565 µM) | 0.05 ± 0.02 (≈ 0.0941 µM) | 96 ± 37 (≈ 181 µM) | – | –
3 | NS(=O)(=O)c1ccc(NC(=[Se])Nc2ccccc2)cc1 [3a] | 4.3 ± 1.97 (≈ 12.1 µM) | 0.5 (≈ 1.41 µM) | 0.5 (≈ 1.41 µM) | 64 (≈ 181 µM) | 10.7 (≈ 30.2 µM) | 0.599 | 0.514
4 | NS(=O)(=O)c1ccc(NC(=[Se])NC(=O)c2ccc3c(c2)OCO3)cc1 [7b] | 16 ± 8.76 (≈ 37.5 µM) | 0.5 (≈ 1.17 µM) | 0.5 (≈ 1.17 µM) | 128 (≈ 300 µM) | 16 (≈ 37.5 µM) | 4.86 | 20.4
5 | NS(=O)(=O)c1ccc(CCNC(=[Se])Nc2ccccc2F)cc1 [5b] | 9 ± 5.9 (≈ 22.5 µM) | 1 (≈ 2.5 µM) | 0.25 (≈ 0.624 µM) | 107 (≈ 267 µM) | 3.3 (≈ 8.24 µM) | 0.633 | 0.149
6 | CC(=O)Oc1ccccc1C(=O)NC(=[Se])Nc1ccc(S(N)(=O)=O)cc1 [7d] | 256 (≈ 581 µM) | 2.7 ± 1.15 (≈ 6.13 µM) | 3.33 ± 1.15 (≈ 7.56 µM) | 128 (≈ 291 µM) | 64 (≈ 145 µM) | 5.88 | 66.8
7 | NS(=O)(=O)c1ccc(O)c(NC(=[Se])NC(=O)c2ccc(Cl)cc2)c1 [11f, 4-Chloro-N-((2-hydroxy-5-sulfamoylphenyl)carbamoselenoyl)benzamide] | 256 (≈ 592 µM) | 4 (≈ 9.24 µM) | 0.5 (≈ 1.16 µM) | – | – | 5.13 | 54.2
8 | NS(=O)(=O)c1cccc(NC(=[Se])NC(=O)c2ccccc2)c1 [8a] | 128 (≈ 335 µM) | 21.3 ± 9.24 (≈ 55.7 µM) | 2 (≈ 5.23 µM) | – | – | 4.14 | 33.7
9 | NS(=O)(=O)c1ccc(NC(=[Se])Nc2ccccc2F)cc1 [3c] | > 256 | 16 (≈ 43 µM) | 64 (≈ 172 µM) | 341 (≈ 917 µM) | 64 (≈ 172 µM) | 0.721 | 0.152
10 | NS(=O)(=O)c1ccc(CCNC(=[Se])NC(=O)c2ccc3c(c2)OCO3)cc1 [9c] | 37.3 ± 13.1 (≈ 82.1 µM) | 2 ± 1.37 (≈ 4.4 µM) | 1 (≈ 2.2 µM) | > 256 | > 256 | 1.78 | 55.9
11 | NS(=O)(=O)c1ccc(O)c(NC(=[Se])NC(=O)c2ccccc2)c1 [11a] | 128 (≈ 321 µM) | 2.7 ± 1.15 (≈ 6.78 µM) | 1 (≈ 2.51 µM) | – | – | 4.1 | 13.4
12 | COc1ccccc1NC(=[Se])NCCc1ccc(S(N)(=O)=O)cc1 [5f] | 256 (≈ 621 µM) | 1.3 ± 0.58 (≈ 3.15 µM) | 0.5 (≈ 1.21 µM) | – | – | 0.411 | 0.525
13 | NS(=O)(=O)c1ccc(CCNC(=[Se])Nc2ccc3ccccc3c2)cc1 [5h] | 64 (≈ 148 µM) | 1.7 ± 0.58 (≈ 3.93 µM) | 0.5 (≈ 1.16 µM) | – | – | 0.561 | 0.26
14 | CCCCCCCc1ccc(C(=O)NC(=[Se])NCCc2ccc(S(N)(=O)=O)cc2)cc1 [9b, 4-Heptyl-N-((4-sulfamoylphenethyl)carbamoselenoyl)benzamide] | 256 (≈ 503 µM) | 1.7 ± 0.58 (≈ 3.34 µM) | 1.7 ± 0.58 (≈ 3.34 µM) | – | – | 6.39 | > 10
15 | C[C@@H]1[C@H](O)[C@@H](C)/C=C/C=C/C=C/C=C/C=C/C=C/C=C/[C@H](O[C@@H]2O[C@H](C)[C@@H](O)[C@H](N)[C@@H]2O)C[C@@H]2O[C@](O)(C[C@@H](O)C[C@@H](O)[C@H](O)CC[C@@H](O)C[C@@H](O)CC(=O)O[C@H]1C)C[C@H](O)[C@H]2C(=O)O [Amphotericin B] | 125 (≈ 135 µM) | 1.95 (≈ 2.11 µM) | 0.43 ± 0.12 (≈ 0.465 µM) | 0.24 ± 1 (≈ 0.26 µM) | 0.98 (≈ 1.06 µM) | – | –
16 | NS(=O)(=O)c1cccc(NC(=[Se])NC(=O)c2ccc(I)cc2)c1 [8e, 4-Iodo-N-((3-sulfamoylphenyl)carbamoselenoyl)benzamide] | > 256 | 6.7 ± 2.31 (≈ 13.2 µM) | 8 (≈ 15.7 µM) | – | – | 8.74 | 77.6
17 | NS(=O)(=O)c1ccc(NC(=[Se])Nc2cccc(C(F)(F)F)c2)cc1 [3d] | > 256 | 213 ± 73.9 (≈ 505 µM) | 6 ± 3.46 (≈ 14.2 µM) | – | – | 0.803 | 0.617
18 | O=C(NC(=[Se])Nc1ccc(S(=O)(=O)Nc2nccs2)cc1)c1ccc(F)cc1 [10e, 4-Fluoro-N-((4-(N-(thiazol-2-yl)sulfamoyl)phenyl)carbamoselenoyl)benzamide] | 128 (≈ 265 µM) | 2.3 ± 2.31 (≈ 4.76 µM) | 1 (≈ 2.07 µM) | – | – | 8.9 | 80.3
19 | NS(=O)(=O)c1ccc(O)c(NC(=[Se])NC(=O)c2ccc([N+](=O)[O-])cc2)c1 [11c, N-((2-Hydroxy-5-sulfamoylphenyl)carbamoselenoyl)-4-nitrobenzamide] | 128 (≈ 289 µM) | 5.3 ± 2.31 (≈ 12 µM) | 0.5 (≈ 1.13 µM) | – | – | 5.02 | 91.2
20 | NS(=O)(=O)c1ccc(CCNC(=[Se])NC(=O)c2ccccc2)cc1 [9a] | 32 (≈ 78 µM) | 4 (≈ 9.75 µM) | 1 (≈ 2.44 µM) | – | – | 0.565 | 73.9
21 | O=C(NC(=[Se])Nc1ccc(S(=O)(=O)Nc2nccs2)cc1)c1ccccc1 [10a, N-((4-(N-(Thiazol-2-yl)sulfamoyl)phenyl)carbamoselenoyl)benzamide] | 128 (≈ 275 µM) | 8 (≈ 17.2 µM) | 1 (≈ 2.15 µM) | – | – | 52.8 | 42.9
22 | NS(=O)(=O)c1ccc(CCNC(=[Se])NC(=O)c2ccc(I)cc2)cc1 [9e, 4-Iodo-N-((4-sulfamoylphenethyl)carbamoselenoyl)benzamide] | 32 (≈ 59.7 µM) | 3.3 ± 1.15 (≈ 6.15 µM) | 1 (≈ 1.86 µM) | – | – | 1.57 | 83.3
23 | O=C(NC(=[Se])Nc1ccc(S(=O)(=O)Nc2nccs2)cc1)c1ccc([N+](=O)[O-])cc1 [10d, 4-Nitro-N-((4-(N-(thiazol-2-yl)sulfamoyl)phenyl)carbamoselenoyl)benzamide] | 26.7 ± 9.2 (≈ 52.3 µM) | 85.3 ± 37 (≈ 167 µM) | 1.8 ± 1.89 (≈ 3.53 µM) | – | – | 8.77 | 92.8
24 | NS(=O)(=O)c1ccc(NC(=[Se])NC(=O)c2ccccc2)cc1 [7a] | 14.7 ± 3.26 (≈ 38.5 µM) | 0.85 ± 0.36 (≈ 2.22 µM) | 0.5 (≈ 1.31 µM) | 128 (≈ 335 µM) | 32 (≈ 83.7 µM) | 3.85 | 44.8
25 | NS(=O)(=O)c1ccc(O)c(NC(=[Se])NC(=O)c2ccc(I)cc2)c1 [11d, N-((2-Hydroxy-5-sulfamoylphenyl)carbamoselenoyl)-4-iodobenzamide] | 128 (≈ 244 µM) | 10.7 ± 4.62 (≈ 20.4 µM) | 13.3 ± 4.6 (≈ 25.4 µM) | – | – | 2.93 | 7.5
26 | NS(=O)(=O)c1cccc(NC(=[Se])NC(=O)c2ccc(Cl)cc2)c1 [8f, 4-Chloro-N-((3-sulfamoylphenyl)carbamoselenoyl)benzamide] | 128 (≈ 307 µM) | 64 (≈ 154 µM) | 16 (≈ 38.4 µM) | – | – | 2.08 | 74.7
